In patent US5296367A (priority 1991, dated 1994):
*1 amine or outer side, *2 acyl side, *3 side chain or, on linkers, in order; H or OH if unused. Where a SMILES comes first, the peptide text is derived from it. CO = O=C([*:1])[*:2]

Target: T1, alkaline proteinase K-16 from Bacillus sp. KSM-K16 (Shouchella clausii, UniProt Q99405)
T1 construct: made in house; host or cells: Bacillus sp; KSM-K16 (own producer strain, culture)
T1 sequence (Q99405 112-380): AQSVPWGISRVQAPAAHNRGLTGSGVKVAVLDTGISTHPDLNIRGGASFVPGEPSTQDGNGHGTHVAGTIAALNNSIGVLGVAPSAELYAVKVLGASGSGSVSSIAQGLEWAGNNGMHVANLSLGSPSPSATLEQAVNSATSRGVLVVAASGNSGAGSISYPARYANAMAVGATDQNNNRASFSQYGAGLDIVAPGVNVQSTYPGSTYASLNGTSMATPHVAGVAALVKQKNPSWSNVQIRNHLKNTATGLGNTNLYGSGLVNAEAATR
Assay type: biochemical
Settings: for Residual activity (%): pH 7

| Compound | Effect of inhibitor on activity (in words) | Residual activity (%) |
| --- | --- | --- |
| O=C(O)CN(CCN(CC(=O)O)CC(=O)O)CC(=O)O [EDTA, Ethylenediaminetetraacetic acid] | not inhibited | – |
| O=S(=O)(F)Cc1ccccc1 [PMSF, Phenylmethanesulfonyl fluoride] | inhibited | 1.5% |
| chymostatin | inhibited | 34% |
| CC(C)[C@H](NC(=O)[C@H](CCCNC(=N)N)NC(=O)N[C@@H](Cc1ccccc1)C(=O)O)C(=O)N[C@H](C=O)CCCNC(=N)N [Antipain] ({Phe-CO}-Arg-Val-Arg-aldehyde) | not inhibited | – |
